# Experimental data: EP0164700B1, “Bis(beta-hydroxy phenethyl)amines” (BEECHAM GROUP PLC, priority 1984, dated 1985)
# Counter-ions that a name gives are not always drawn. Like-named read-outs stand apart in the source and are kept apart here.
# Columns and labels:
# Assay type in all cases: in vivo
# Female CFLP mice = assay: Anti-hyperglycaemic activity (glucose tolerance after subcutaneous glucose load); settings: 24 h fasted mice, glucose 1 g/kg s.c. 30 min after dosing, 2 hour period, compared with water controls
# Description: Female CFLP mice, weighing approximately 25 g, were fasted for 24 hours prior to the study. The compound under study was administered orally as an aqueous solution to each of 6 mice. 30 minutes later a blood sample (10 µl) was obtained from the tail for the analysis of blood glucose. Immediately after taking this blood sample, glucose (1 g/kg body weight) was administered subcutaneously to each mouse. 6 mice were given water as a control. Blood samples were then obtained from each mouse at 30 minute intervals for 120 minutes.
# Compounds that produce a significant (P<0.05) reduction of blood glucose, compared with control mice given water, at any time interval, are considered active. The area under the blood glucose curve over the 2 hour period after the administration of the glucose was calculated for the compounds and compared with the value for control animals.
# Male Sprague-Dawley rats = assay: Effect on energy expenditure of rats; settings: Rattus norvegicus, po; for response vs control in vivo at 0.57 mg/kg: dose 0.57 mg/kg p.o.; for response vs control in vivo at 0.57 mg/kg / response vs control in vivo at 10.3 mg/kg / response vs control in vivo at 5.8 mg/kg / response vs control in vivo at 26.4 mg/kg / response vs control in vivo at 9.4 mg/kg / response vs control in vivo at 10.4 mg/kg / response vs control in vivo at 4.73 mg/kg: percentage of the rate of energy expenditure of the rats dosed with water, fasted rats; for response vs control in vivo at 10.3 mg/kg: dose 10.3 mg/kg p.o.; for response vs control in vivo at 5.8 mg/kg: dose 5.8 mg/kg p.o.; for response vs control in vivo at 26.4 mg/kg: dose 26.4 mg/kg p.o.; for response vs control in vivo at 9.4 mg/kg: dose 9.4 mg/kg p.o.; for response vs control in vivo at 10.4 mg/kg: dose 10.4 mg/kg p.o.; for response vs control in vivo at 4.73 mg/kg: dose 4.73 mg/kg p.o.
# Description: Male Sprague-Dawley rats each weighing between 170-200 g were deprived of food for 16 hours before, and during the experiment. Water was provided ab lib at all times. The compounds were administered orally in water to 3 or 4 rats. A further 4 rats were dosed orally with water. The rats were placed in boxes through which air was drawn and the oxygen content of the air leaving the boxes was measured. The energy expenditure of the rats was calculated for 3 hours and for 21 hours after dosing from the volume of air leaving the boxes and its oxygen content, following the pinciples described by J. B. de V. Weir, J. Physiol. (London) 109, 1-9 (1949). The results are expressed as a percentage of the rate of energy expenditure of the rats dosed with water.
# Female BALB/c mice = assay: Anti-obesity activity (weight of parametrial fat pads); settings: 5.8 mg/kg of diet, added to the diet for 3 days, treated animals compared with controls, mean of 9 values
# Description: Female BALB/c mice were trained to feed on powdered oxoid for 1 week. They were then housed in threes and the compound under study was added to the diet for 3 days. Food was removed at 09.00h and the mice were killed at 11.00h. The parmetrial fat pads were weighed as pairs. The result is a mean of 9 values.
# The compound of Example Number 3 gave a 38% reduction in weight of perigenital adipose tissue in. treated animals compared with controls when given at a dose of 5.8 mg/kg of diet.
# [1] = 3 h, read-out: Mean Energy Expenditure (0—3h)
# [2] = 21 h, read-out: Mean Energy Expenditure (9—21h)
smiles,measurement,setting,value
"COC(=O)COc1ccc(CC(C)N(CC(O)c2cccc(Cl)c2)CC(O)c2cccc(Cl)c2)cc1.Cl.O (stereo not drawn) [Example 1, Methyl 4-[2-[bis-[β-hydroxy-3-chlorophenethyl]amino]propyl]phenoxyacetate hydrochloride monohydrate]",% Reduction in area under Blood Glucose Curve,Female CFLP mice; dose 5 µmol/kg orally,55%
same,response vs control in vivo at 0.57 mg/kg,Male Sprague-Dawley rats; [1],132%
same,response vs control in vivo at 0.57 mg/kg,Male Sprague-Dawley rats; [2],110%
"CCOC(=O)COc1ccc(C[C@@H](C)N(C[C@H](O)c2ccccc2)C[C@H](O)c2ccccc2)cc1.Cl [Example 2, Ethyl 4-[(R)-2-[bis-[(R)-β-hydroxyphenethyl]amino]propyl]phenoxyacetate hydrochloride]",% Reduction in area under Blood Glucose Curve,Female CFLP mice; dose 2.5 µmol/kg orally,52%
same,response vs control in vivo at 10.3 mg/kg,Male Sprague-Dawley rats; [1],146%
same,response vs control in vivo at 10.3 mg/kg,Male Sprague-Dawley rats; [2],143%
"CCOC(=O)COc1ccc(C[C@@H](C)N(C[C@H](O)c2cccc(Cl)c2)C[C@H](O)c2cccc(Cl)c2)cc1.Cl [Example 3, Ethyl 4-[(R)-2-[bis-[(R)-β-hydroxy-3-chlorophenethyl]amino]propyl]phenoxyacetate hydrochloride]",response vs control in vivo at 5.8 mg/kg,Male Sprague-Dawley rats; [1],144%
same,response vs control in vivo at 5.8 mg/kg,Male Sprague-Dawley rats; [2],132%
same,reduction in weight of perigenital adipose tissue,Female BALB/c mice,38%
"CCOC(=O)COc1ccc(CC[C@@H](C)N(C[C@H](O)c2ccccc2)C[C@H](O)c2ccccc2)cc1.Cl [Example 4, Ethyl 4-[(R)-3-[bis-[(R)-β-hydroxyphenethyl]amino]butyl]phenoxyacetate hydrochloride]",% Reduction in area under Blood Glucose Curve,Female CFLP mice; dose 12.5 µmol/kg orally,42%
same,response vs control in vivo at 26.4 mg/kg,Male Sprague-Dawley rats; [1],111%
same,response vs control in vivo at 26.4 mg/kg,Male Sprague-Dawley rats; [2],99%
"C[C@H](Cc1ccc(OCCO)cc1)N(C[C@H](O)c1ccccc1)C[C@H](O)c1ccccc1 [Example 5, 4-[(R)-2-[bis-[(R)-β-hydroxyphenethyl]amino]propyl]phenoxyethanol hydrochloride]",% Reduction in area under Blood Glucose Curve,Female CFLP mice; dose 2.5 µmol/kg orally,54%
same,response vs control in vivo at 9.4 mg/kg,Male Sprague-Dawley rats; [1],159%
same,response vs control in vivo at 9.4 mg/kg,Male Sprague-Dawley rats; [2],152%
"CNC(=O)COc1ccc(C[C@@H](C)N(C[C@H](O)c2ccccc2)C[C@H](O)c2ccccc2)cc1.Cl [Example 6, N-Methyl 4-[(R)-2-[bis-[(R)-β-hydroxyphenethyl]amino]propyl]phenoxyacetamide hydrochloride]",% Reduction in area under Blood Glucose Curve,Female CFLP mice; dose 2.5 µmol/kg orally,52%
same,response vs control in vivo at 10 mg/kg,Male Sprague-Dawley rats; [1],154%
same,response vs control in vivo at 10 mg/kg,Male Sprague-Dawley rats; [2],147%
"CNCCOc1ccc(C[C@@H](C)N(C[C@H](O)c2ccccc2)C[C@H](O)c2ccccc2)cc1 [Example 7, N-Methyl 4-[(R)-2-[bis-[(R)-β-hydroxyphenethyl]amino]propyl]phenoxy ethylamine dihydrochloride]",% Reduction in area under Blood Glucose Curve,Female CFLP mice; dose 2.5 µmol/kg orally,50%
same,response vs control in vivo at 10.4 mg/kg,Male Sprague-Dawley rats; [1],145%
same,response vs control in vivo at 10.4 mg/kg,Male Sprague-Dawley rats; [2],146%
"C[C@H](COc1ccc(OCC(N)=O)cc1)N(C[C@H](O)c1ccccc1)C[C@H](O)c1ccccc1 [Example 8, 4-[(R)-2-[bis-[(R)-β-hydroxyphenethyl]amino]propoxy]phenoxyacetamide hydrochloride]",response vs control in vivo at 4.73 mg/kg,Male Sprague-Dawley rats; [1],113%
same,response vs control in vivo at 4.73 mg/kg,Male Sprague-Dawley rats; [2],103%
